Earlier results, collected in US11766411B2, “Use of cannabinoids in the treatment of epilepsy” (GW Research Limited, priority 2014, dated 2023).

Conditions: Consroe et al., 1977; cited from earlier work

CCCCCc1cc(O)c2c(c1)OC(C)(C)[C@@H]1CCC(C)=C[C@@H]21 [THC, Tetrahydrocannabinol]
effect on convulsions: pro-convulsant
